Patent publication US20250312329A1, “MODIFIED RELEASE NICORANDIL COMPOUND FORMULATIONS” (AUXILIUS PHARMA SPOLKA Z OGRANICZONA ODPOWIEDZIALNOSCIA, priority 2021, published 2025)

Experiments:
[1] = Loss of drying (LOD) of nicorandil/excipient powder blends; format: physicochemical; conditions: 1:1 excipient/API powder blend
Excerpt: To better understand the stability of nicorandil formulations according to the invention at an ingredient level, the following powder blend combinations were generated and analyzed: • NCD+HPMC • NCD+Starch • NCD+MCC • NCD+Magnesium stearate • NCD+Mannitol (not used in current formulation) • NCD only […]

[2] = in vivo; cited from earlier work
[3] = test system: patients with stable angina; conditions: cited from earlier work
[4] = Excipient/API powder blend stability: impurities and NCD content initially and after storage; format: physicochemical
Protocol: To better understand the stability of nicorandil formulations according to the invention at an ingredient level, the following powder blend combinations were generated and analyzed: • NCD+HPMC • NCD+Starch • NCD+MCC • NCD+Magnesium stearate • NCD+Mannitol (not used in current formulation) • NCD only […] These compositions were further analyzed (N=2) for impurities ([…]) and NCD content both initially and after 2 or 4 weeks of storage at accelerated stability testing conditions (40° C.) (per US FDA typical standards/procedures) or room temperature conditions (25° C.). Unknown impurities (“Unk. Imps.”) were also measured and the sum of all measured impurities (“Sum Imps.”) calculated.

SMILES: O=C(NCCO[N+](=O)[O-])c1cccnc1 [Nicorandil, N-[2-(Nitro-oxy)ethyl]-3-pyridine carboxamide]
- LOD (%) [1]: 0.28%
- elimination half-life [2]: approximately 1 hour
- composite endpoint of coronary heart disease death, non-fatal MI or unplanned hospital admission with chest pain ([3]; IONA study, versus placebo, average 1.6 years): reduction in the composite endpoint
- reduction in all-cause mortality ([3]; JCAD study, average 2.7 years): 35%
- reduction in cardiac death ([3]; JCAD study, average 2.7 years): 56%
- Imp A ([4]; T = 0): 0.00 Weight Percent
- Imp B ([4]; T = 0): 0.01 Weight Percent
- Imp C ([4]; T = 0): 0.01 Weight Percent
- Imp D ([4]; T = 0): 0.11 Weight Percent
- Mass Balance ([4]; T = 0): 98.60 Weight Percent
- NCD ([4]; T = 0): 98.40 Weight Percent
- Sum Imps. ([4]; T = 0): 0.20 Weight Percent
- Unk. Imps. ([4]; T = 0): 0.06 Weight Percent
- Imp A ([4]; T = 2 weeks, 40° C.): 0.00 Weight Percent
- Imp B ([4]; T = 2 weeks, 40° C.): 0.04 Weight Percent
- Imp C ([4]; T = 2 weeks, 40° C.): 0.05 Weight Percent
- Imp D ([4]; T = 2 weeks, 40° C.): 0.22 Weight Percent
- Mass Balance ([4]; T = 2 weeks, 40° C.): 100.01 Weight Percent
- NCD ([4]; T = 2 weeks, 40° C.): 99.52 Weight Percent
- Sum Imps. ([4]; T = 2 weeks, 40° C.): 0.49 Weight Percent
- Unk. Imps. ([4]; T = 2 weeks, 40° C.): 0.18 Weight Percent
- Imp A ([4]; T = 4 weeks, 25° C.): 0.00 Weight Percent
- Imp B ([4]; T = 4 weeks, 25° C.): 0.00 Weight Percent
- Imp C ([4]; T = 4 weeks, 25° C.): 0.00 Weight Percent
- Imp D ([4]; T = 4 weeks, 25° C.): 0.12 Weight Percent
- Mass Balance ([4]; T = 4 weeks, 25° C.): 108.41 Weight Percent
- NCD ([4]; T = 4 weeks, 25° C.): 108.13 Weight Percent
- Sum Imps. ([4]; T = 4 weeks, 25° C.): 0.29 Weight Percent
- Unk. Imps. ([4]; T = 4 weeks, 25° C.): 0.17 Weight Percent
